# “And” between values parts separate entries of the source, which are not always exact repeats. Identical values can stand only once.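 Five concentrations, 48 hours, 96-well plates. Here, GI50 denotes the concentration required for 50% inhibition of growth. At the TGI there is no net growth.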
# Tests used:
# Assay in all cases: DTP human tumour cell line panel, 48 h
# SK-MEL-5 melanoma = test system: SK-MEL-5 melanoma
# PC-3 prostate = test system: PC-3 prostate
# 786-0 renal = test system: 786-0 renal
# BT-549 breast = test system: BT-549 breast
# OVCAR-4 ovarian = test system: OVCAR-4 ovarian
# SF-295 CNS = test system: SF-295 CNS
# KM12 colon = test system: KM12 colon
# SK-OV-3 ovarian = test system: SK-OV-3 ovarian
# LOX IMVI melanoma = test system: LOX IMVI melanoma
# A498 renal = test system: A498 renal
SMILES,GI50 (SK-MEL-5 melanoma) [µM],TGI (SK-MEL-5 melanoma),GI50 (PC-3 prostate) [µM],TGI (PC-3 prostate) [µM],GI50 (786-0 renal) [µM],TGI (786-0 renal) [µM],GI50 (BT-549 breast) [µM],TGI (BT-549 breast) [µM],GI50 (OVCAR-4 ovarian) [µM],TGI (OVCAR-4 ovarian) [µM],GI50 (SF-295 CNS) [µM],TGI (SF-295 CNS),GI50 (KM12 colon) [µM],TGI (KM12 colon) [µM],GI50 (SK-OV-3 ovarian) [µM],TGI (SK-OV-3 ovarian) [µM],GI50 (LOX IMVI melanoma) [µM],TGI (LOX IMVI melanoma),GI50 (A498 renal) [µM],TGI (A498 renal)
O=C1c2ccccc2-c2c1c1c(O)cccc1n2Cc1ccccn1,8.77,> 100 µM,43.8,> 100,> 100,> 100,26.2,> 100,> 100,> 100,23.6,> 100 µM,> 100,> 100,89,> 100,35.5,> 100 µM,–,–
COC(=O)C12OCC34C(CC5C(C)C6=CC(=O)OC6=CC5(C)C3C(O)C1O)OC(=O)C(O)C24 (centres undefined),0.373,0.255 µM and 2.31 µM,–,–,0.31,5.66,–,–,0.155,–,0.351,0.956 µM and 6.03 µM,0.331,12.5,0.328,24.6,0.0542,0.288 µM and 1.42 µM,0.266,0.507 µM and 1.49 µM
C/C=C(\CCOS(=O)(=O)c1ccc(C)cc1)[Si](C)(C)C,–,> 100 µM,–,–,–,> 100,–,–,–,–,–,> 100 µM,–,> 100,–,> 100,–,> 100 µM,–,> 100 µM
O=C1C=CC(=O)N1c1cccc(N2C(=O)C=CC2=O)c1,10.9,23 µM,13.4,31.6,1.84,3.44,7.51,20.2,–,–,21.2,44.5 µM,8.33,22.7,18.2,32.1,2.02,4.02 µM,16.2,31.1 µM
O=NNc1ccc(Sc2ccc(NN=O)cn2)nc1,–,> 100 µM,–,> 100,–,> 100,–,> 100,–,> 100,–,> 100 µM,–,> 100,–,> 100,–,–,–,> 100 µM
CN(CC(=O)Nc1nc2ccccc2[nH]1)S(=O)(=O)c1ccc(Cl)cc1,> 100,> 100 µM,–,–,> 100,> 100,> 100,> 100,> 100,> 100,–,–,> 100,> 100,> 100,> 100,> 100,> 100 µM,> 100,> 100 µM
CC(=O)O[C@@]1(C)[C@@H](C)C(=O)O[C@@H]2CCN3CC=C(COC(=O)[C@]1(C)O)[C@H]23,–,> 100 µM,–,–,–,> 100,–,–,–,> 100,–,–,–,> 100,–,–,–,–,–,–
O=C1C2C(C(=O)N1c1ccccc1)C1([N+](=O)[O-])C=C3c4ccccc4N(C(=O)c4ccccc4)C32C2C(=O)N(c3ccccc3)C(=O)C21 (centres undefined),–,–,–,–,–,> 100,–,–,–,–,–,> 100 µM,–,> 100,–,> 100,–,> 100 µM,–,> 100 µM
NC1=NN(c2ccccc2)C(=O)C1C(=O)C(=O)Nc1nccs1 (centres undefined),–,> 100 µM,–,–,–,> 100,–,–,–,> 100,–,> 100 µM,–,> 100,–,> 100,–,> 100 µM,–,> 100 µM
Cc1ccc(C(=O)/C=C/c2cccc([N+](=O)[O-])c2)cc1,–,> 100 µM,–,–,–,> 62.9,–,–,–,> 100,–,> 100 µM,–,> 62.1,–,> 100,–,> 100 µM,–,> 100 µM
Cc1cccc(C(C)(C)C)c1NC(=O)CCc1nc(=S)[nH][nH]1,–,> 100 µM,–,–,–,> 100,–,–,–,> 100,–,> 100 µM,–,> 100,–,> 100,–,> 100 µM,–,> 100 µM
CC1(C)NCCC[C@]2(C)[C@H]3CC[C@@H]4[C@H]5[C@H](C(=O)/C=C/c6ccccn6)CC[C@]5(CO)CC[C@@]4(C)[C@]3(C)CC[C@@H]12,2,4.07 µM,2.55,11.8,2.43,6.26,2.27,11,3.51,13,1.82,3.47 µM,2.07,4.27,12.9,30,–,–,8.7,23.5 µM
CCCCCCCCCCCCCCCCCCOCC(CCP(=O)(CP(=O)(O)O)Oc1ccccc1)OCCCCCCCCCCCCCCCCCC (centres undefined),–,> 100 µM,–,> 100,–,> 100,–,–,–,> 100,–,> 100 µM,–,> 100,–,> 100,–,> 100 µM,–,> 100 µM
C=C1C(=O)O[C@H]2[C@H]1CC/C(COC(=O)C(C)c1ccc(CC(C)C)cc1)=C\CC[C@@]1(C)O[C@@H]21 (some centres undefined),1.6,2.96 µM,0.891,2.17,0.395,1.65,0.533,1.89,1.71,3.35,2.47,7.39 µM,1.79,3.69,9.7,21.4,1.54,3.01 µM,–,–
CC(=O)c1c(CO[N+](=O)[O-])n([O-])c2ccccc2[n+]1=O,–,> 100 µM,–,> 100,–,> 100,–,> 100,–,> 100,–,> 100 µM,–,–,–,> 100,–,> 100 µM,–,–
O=C(CC(=O)c1cccc2ccccc12)C(=O)NC1C2CC3CC(C2)CC1C3 (centres undefined),–,> 100 µM,–,–,–,> 100,–,–,–,> 100,–,> 100 µM,–,> 100,–,> 100,–,> 100 µM,–,> 100 µM
Cc1cccc2c1CCC21OC(=O)c2c1ccc1ccccc21 (centres undefined),–,46 µM,–,–,–,> 100,–,–,–,> 100,–,> 100 µM,–,> 100,–,> 100,–,> 100 µM,–,53.4 µM
O=C1/C(=C/c2ccc(Cl)cc2)CCC/C1=C\c1ccc(Cl)cc1,4.26,> 100 µM,5.46,> 100,5.55,> 100,–,–,5.17,> 100,3.83,> 100 µM,1.9,3.75,9.84,> 100,1.69,3.42 µM,2.3,8.69 µM

# Source: PubChem BioAssay (NCI)
